Test results as given in patent US9353090B2, “Heterocyclic carboxylic acids as activators of soluble guanylate cyclase” (Boehringer Ingelheim International GmbH, priority 2014, dated 2016).
pEC50: −log10 of the molar value. Converted amounts (≈) assume the structure as drawn.

Columns and labels:
[1] = biological target: human soluble guanylate cyclase alpha 1 and beta 1 subunits (sGC) (Homo sapiens (Human), UniProt Q02108+Q02153); assay: sGC cellular activator assay (cGMP, HTRF), in the presence and absence of 50% human serum; type: cell-based; details: CHO cells stably expressing human sGC alpha 1/beta 1, preincubated with 40 microM ODQ; cGMP by HTRF; Table 2 does not state whether with or without 50% human serum
human soluble guanylate cyclase alpha 1 and beta 1 subunits (sGC), sequence (Q02108 whole entry partner): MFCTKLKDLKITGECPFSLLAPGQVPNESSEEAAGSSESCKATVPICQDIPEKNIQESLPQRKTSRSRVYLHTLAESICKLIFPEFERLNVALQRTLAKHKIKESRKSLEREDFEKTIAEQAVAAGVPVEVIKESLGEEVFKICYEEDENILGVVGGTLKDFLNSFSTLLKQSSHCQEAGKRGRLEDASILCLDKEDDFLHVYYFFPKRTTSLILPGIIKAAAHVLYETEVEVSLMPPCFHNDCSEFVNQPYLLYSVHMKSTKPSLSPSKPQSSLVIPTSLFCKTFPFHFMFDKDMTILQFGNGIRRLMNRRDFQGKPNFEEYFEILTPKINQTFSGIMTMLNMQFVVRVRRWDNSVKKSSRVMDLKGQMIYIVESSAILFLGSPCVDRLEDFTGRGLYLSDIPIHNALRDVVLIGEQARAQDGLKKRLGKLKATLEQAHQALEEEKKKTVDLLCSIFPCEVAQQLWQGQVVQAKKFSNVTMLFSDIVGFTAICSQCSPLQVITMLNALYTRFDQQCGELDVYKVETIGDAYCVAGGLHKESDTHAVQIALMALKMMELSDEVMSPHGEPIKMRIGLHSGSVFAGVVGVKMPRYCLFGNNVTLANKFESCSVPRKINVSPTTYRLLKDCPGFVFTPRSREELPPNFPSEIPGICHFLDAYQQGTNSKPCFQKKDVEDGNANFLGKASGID
human soluble guanylate cyclase alpha 1 and beta 1 subunits (sGC), sequence (Q02153 whole entry): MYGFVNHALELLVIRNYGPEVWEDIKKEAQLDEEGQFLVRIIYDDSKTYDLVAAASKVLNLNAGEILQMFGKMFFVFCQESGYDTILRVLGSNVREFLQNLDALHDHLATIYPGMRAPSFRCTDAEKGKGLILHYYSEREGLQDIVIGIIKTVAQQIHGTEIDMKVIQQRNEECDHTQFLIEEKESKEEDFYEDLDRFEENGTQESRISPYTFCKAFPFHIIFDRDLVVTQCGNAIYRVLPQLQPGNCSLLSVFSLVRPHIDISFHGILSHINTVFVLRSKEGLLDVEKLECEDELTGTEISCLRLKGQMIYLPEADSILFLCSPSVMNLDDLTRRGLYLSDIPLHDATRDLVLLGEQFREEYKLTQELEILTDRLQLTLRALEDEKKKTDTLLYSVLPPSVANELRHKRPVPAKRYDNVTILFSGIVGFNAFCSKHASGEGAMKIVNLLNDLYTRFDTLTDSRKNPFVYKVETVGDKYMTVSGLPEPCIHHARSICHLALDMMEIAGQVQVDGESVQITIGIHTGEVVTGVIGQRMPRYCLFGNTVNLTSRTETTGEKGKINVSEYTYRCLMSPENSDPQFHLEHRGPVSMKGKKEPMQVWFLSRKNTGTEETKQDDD
How it was run: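 Heme-oxidized conditions: ODQ (40 microM, 1 h) pretreatment of CHO cells stably expressing human α1/β1 sGC, in buffer containing 0.1% BSA and IBMX.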

[2] = Human liver microsome (HLM) metabolic stability assay; type: in vitro ADME; details: human liver microsomes
How it was run: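 Compound at 1 uM incubated with human liver microsomes at 37° C. for 60 min after NADPH addition. Aliquots quenched in cold acetonitrile at 0, 5, 15, 30 and 60 min and analysed by LC/MS/MS. t1/2 from ln(% remaining) vs time slope; CLint, CLh and % Qh derived from it (n=1).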

physchem = details: kinetic from dmso stock
[3] = pH 2.2, aqueous buffer, Solubility (pH 2.2)
[4] = pH 4.5, aqueous buffer, Solubility (pH 4.5)
[5] = pH 6.8, aqueous buffer, Solubility (pH 6.8)

SMILES | pEC50 [1] | Metabolic stability (Qh %), % hepatic blood flow [2] | solubility at 24 h (physchem; [3]) | solubility at 24 h (physchem; [4]) | solubility at 24 h (physchem; [5])
Cc1cccc(-c2csc(N3C[C@@H]4C[C@]4(C(=O)O)C3)n2)c1OCc1ccc2c(c1C)CCN(C1COC1)C2 [Compound 138] | 7.74 | <24% | 100 µg/mL (≈ 188 µM) | 59 µg/mL (≈ 111 µM) | 65 µg/mL (≈ 122 µM)
Cc1nccnc1C(C)N1CCc2c(ccc(COc3ccccc3-c3cccc(N4CC[C@@]5(C(=O)O)C[C@H]5C4)n3)c2C)C1 (some centres unmarked) [Compound 309] | 7.74 | 54% | 163 µg/mL (≈ 276 µM) | 116 µg/mL (≈ 197 µM) | 23.8 µg/mL (≈ 40.4 µM)
O=C(O)[C@@]12CCN(c3cccc(-c4ccccc4OCc4ccc5c(c4)CCN(C4COC4)C5)n3)C[C@@H]1C2 [Compound 2] | 7.96 | <24% | 110 µg/mL (≈ 215 µM) | 90 µg/mL (≈ 176 µM) | 58 µg/mL (≈ 113 µM)
CO[C@H]1CN(c2nc(-c3cc(C)ccc3OCc3cc(C)c4c(c3C)CCN(C3CCOCC3)C4)cs2)CC[C@H]1C(=O)O [Compound 181] | 7.64 | <24% | 120 µg/mL (≈ 198 µM) | 53 µg/mL (≈ 87.5 µM) | 5 µg/mL (≈ 8.25 µM)
Cc1ccc(OCc2cc(C)c3c(c2)CCN(C2COC2)C3)c(-c2cccc(N3C[C@@H]4C[C@]4(C(=O)O)C3)n2)c1 [Compound 38] | 6.45 | <24% | 100 µg/mL (≈ 190 µM) | 85 µg/mL (≈ 162 µM) | 59 µg/mL (≈ 112 µM)
COC[C@H]1N(c2cccc(-c3cccc(C)c3OCc3ccc4c(c3)[C@H](C)CN(C3CCOCC3)CC4)n2)C[C@@H]2C[C@@]21C(=O)O [Compound 226] | 8.22 | <24% | 145 µg/mL (≈ 237 µM) | 142 µg/mL (≈ 231 µM) | 134 µg/mL (≈ 219 µM)
CCO[C@@H]1CN(c2cccc(-c3cc(C)ccc3OCc3ccc4c(c3C)CCN(C3CCOCC3)CC4)n2)CC[C@@H]1C(=O)O [Compound 240] | 8.30 | 73% | 123 µg/mL (≈ 200 µM) | 118 µg/mL (≈ 193 µM) | 117 µg/mL (≈ 190 µM)
COC[C@H]1N(c2nc(-c3cccc(C)c3OCc3ccc4c(c3C)CCN(C3CCC3)C4)cs2)C[C@@H]2C[C@@]21C(=O)O [Compound 160] | 6.98 | 38% | 120 µg/mL (≈ 209 µM) | < 0.1 µg/mL | 75 µg/mL (≈ 131 µM)
CO[C@@H]1CN(c2nc(-c3cc(F)cc(C)c3OCc3ccc4c(c3C)CCN(C3CCOCC3)CC4)cs2)CC[C@@H]1C(=O)O [Compound 329] | 7.89 | <24% | 103 µg/mL (≈ 164 µM) | 63.9 µg/mL (≈ 102 µM) | 68 µg/mL (≈ 109 µM)
COC[C@H]1N(c2cccc(-c3cccc(C)c3OCc3ccc4c(c3C)CN(C3CCOCC3)C4)n2)C[C@@H]2C[C@@]21C(=O)O [Compound 223] | 7.64 | <24% | 145 µg/mL (≈ 248 µM) | 140 µg/mL (≈ 239 µM) | 132 µg/mL (≈ 226 µM)
CCc1cc(COc2ccc(C)cc2-c2cccc(N3CC[C@H](C(=O)O)[C@H](OC)C3)n2)cc2c1CN(C1CCOCC1)CC2 [Compound 79] | 7.60 | <24% | 140 µg/mL (≈ 233 µM) | 120 µg/mL (≈ 200 µM) | 91 µg/mL (≈ 152 µM)
COc1cc(COc2c(Cl)cccc2-c2csc(N3CC[C@H](C(=O)O)[C@H](OC)C3)n2)cc2c1CN(C1CCOCC1)CC2 [Compound 265] | 7.82 | <24% | 117 µg/mL (≈ 187 µM) | 53.7 µg/mL (≈ 85.5 µM) | 46.7 µg/mL (≈ 74.3 µM)
CO[C@H]1CN(c2cccc(-c3cc(C)ccc3OCc3ccc4c(c3)CCN(C3CCOCC3)C4)n2)CC[C@H]1C(=O)O [Compound 70] | 6.92 | <24% | 130 µg/mL (≈ 227 µM) | 120 µg/mL (≈ 210 µM) | 83 µg/mL (≈ 145 µM)
Cc1cc(COc2ccccc2-c2cccc(N3CC[C@@]4(C(=O)O)C[C@H]4C3)n2)cc2c1CN(C1CCOCC1)CC2 [Compound 12] | 7.92 | <24% | 110 µg/mL (≈ 199 µM) | 90 µg/mL (≈ 163 µM) | 33 µg/mL (≈ 59.6 µM)
CO[C@@H]1CN(c2cccc(-c3cccc(C)c3OCc3ccc4c(c3C)CCN([C@@H]3CCOC3)CC4)n2)CC[C@@H]1C(=O)O [Compound 302] | 8.52 | <24% | 148 µg/mL (≈ 252 µM) | 112 µg/mL (≈ 190 µM) | 85.5 µg/mL (≈ 146 µM)
CO[C@@H]1CN(c2cccc(-c3cc(C)ccc3OCc3cc(C)c4c(c3)CCN(C3CCOCC3)C4)n2)CC[C@@H]1C(=O)O [Compound 76] | 7.60 | <24% | 130 µg/mL (≈ 222 µM) | 110 µg/mL (≈ 188 µM) | 80 µg/mL (≈ 137 µM)
